Results published in paper PMC6367500, “18β-glycyrrhetyl-3-O-sulfate would be a causative agent of licorice-induced pseudoaldosteronism” (Scientific Reports, 2019).

Key:
[1] = Plasma and urine levels of GA metabolites in EHBRs orally treated with GA (LC-MS/MS); assay type: in vivo, Eisai hyperbilirubinuria rats (EHBRs); conditions: for level in accumulated urine for 12 h / concentration at 12 h / level in accumulated urine for 12 h relative to that of 3MGA: GA 200 mg/kg orally; for concentration at 12 h: oral, read-out: plasma concentration at 12 h after treatment
Protocol: (§1) Female SD rats or EHBRs (9-week-old) were anesthetized by an intraperitoneal (i.p.) injection of urethane (1 g/kg) and their jugular veins were exposed. […] Feces were homogenized in phosphate-buffered saline (PBS; 0.15 M, pH 7.2), centrifuged (1.2 × 10^4 g, 10 min), and the supernatants were collected. After 1 week as a washout period, female SD rats were anesthetized by an i.p. injection of urethane (1 g/kg) and their biliary tract was cannulated. […] Aliquots (10 µl) of plasma, urine, homogenate of feces, or bile were mixed with 20 µl of subtilisin (0.91 U/ml) and incubated at 37 °C for 30 min, followed by the addition of 70 µl of astragaloside IV solution (1 µg/ml in ethanol containing 0.5% formic acid, used as internal standard), and kept at −20 °C for 30 min.

[2] = Fecal excretion of GA metabolites in SD rats injected i.v. with GA; assay type: in vivo; conditions: GA 0.2 mg/kg i.v.
Protocol: Then, bile samples were collected for 4 h (E).
as §1

[3] = system: anti-3MGA-mAb; assay: Competitive ELISA using anti-3MGA-mAb; assay type: binding; conditions: specificity to 3MGA calibrated to 100%, n = 1
Protocol: Figure 5 Dot-blot analysis and ELISA detection range of GL metabolites using anti-3MGA-monoclonal antibody (mAb). GL metabolites (1 µg each) were spotted on a PES membrane, and colored using an anti-3MGA-mAb (A). Competitive ELISA using anti-3MGA-mAb for GL metabolites was performed. Data are represented from a single analysis (n = 1) (B). […] Data are represented as mean ± S.D. (n = 3). Two-way ANOVA indicated a significant difference between GA and 3 (F1,36 = 4441, P < 0.001), concentrations (F8,36 = 315, P < 0.001), and their interactions (F8,36 = 281, P < 0.001). The calibrated line for the absorbance-concentration profile of 3 was calculated by the linear least-squares method, and the regression formula is shown in graph (C).
When the specificity of the mAb to 3MGA was calibrated to 100%, the cross-reactivity for GL, GA, 1, 2, and 3 was 0.23%, 2.2%, 4.8%, 4.0%, and 23%, respectively. […] We confirmed the selectivity of the anti-3MGA-mAb in discriminating between 3 and GA and established the detectable measurement range for 3 in this ELISA system.
3MGA-HSA (1 µg/ml in 50 mM carbonate buffer, pH 9.6) was added into a 96-well plate (Nagel Nunc, Penfield, NY, USA) (100 µl in a well) and incubated at 37 °C for 1 h. After the removal of 3MGA-HSA, the wells were washed three times with T-PBS (200 µl in a well). The wells were incubated with 300 µl in a well of 5% skim milk at 4 °C overnight. After the wells had been washed with T-PBS three times, the sample solution diluted with Can Get Signal® Solution 1 (Toyobo Co., Ltd., Osaka, Japan) (50 µl in a well) and anti-3MGA-mAb (1:4,000 dilution with Can Get Signal® Solution 1) (50 µl in a well) were added to the wells, and the plate was incubated at 37 °C for 1 h. After the wells had been washed with T-PBS three times, HRP-labeled goat anti-mouse IgG (Fc specific) antibody (Sigma, 1:20,000 dilution with Can Get Signal® Solution 2) was added into the wells (100 µl in a well) and the plate was incubated at 37 °C for 1 h. Next, the wells were washed with T-PBS three times and the substrate solution (3,3′,5,5′-tetramethylbensidine, TMB solution; Fujifilm Wako Pure Chemical Corporation, Osaka, Japan) was added to the wells (100 µl in a well), followed by incubation at room temperature for 5 min. Then, the stop solution (0.5 M sulfuric acid) was added to the wells (100 µl in a well) and the optical density was measured at 450 nm/630 nm.

[4] = system: rat kidney slices; assay: Uptake into rat kidney slices from pooled EHBR plasma; assay type: in vitro ADME, SD rats; conditions: pH 5.5, 2 h
Protocol: Kidney slices were prepared from SD rats and incubated with the pooled plasma, the pH of which pH was adjusted to 5.5 at 4 °C or 37 °C for 2 h. Figure 4A–C show the amounts of 2, 3, and GA accumulated in the kidney slices.
Figure 4 Uptake of 2 and 3 into rat kidney slices (A–C) or into MDCK II cells stably expressing OAT1 or OAT3 (D–F). Female EHBRs were orally treated with GA (200 mg/kg), and their plasma samples were collected […] after the treatment. The concentrations of compounds 2, 3, and GA in the plasma samples of EHBRs were 7.8, 11.5, and 7.0 µM, respectively. Kidneys were collected from normal SD rats, and the kidney slices were incubated with the plasma samples of EHBRs at 37 °C or 4 °C for 2 h (A–C). MDCK II cells stably expressing OAT1 or OAT3 were incubated with the plasma samples of EHBRs at 37 °C for 15 min (D–F). Then, the concentrations of compounds 2, 3, and GA in kidney slices or the cells were measured by LC-MS/MS. Data are expressed as mean ± S.E. (n = 3 for (C, D), and (E); n = 6 for (A, B), and F). *P < 0.05 and **P < 0.01 vs 4 °C group by Student’s t-test for (A–C), and vs mock cells by Dunnett’s multiple t-test for (D–F).
Uptake studies using rat kidney slices and cells stably expressing OAT1 and OAT3 were conducted with the same protocol as in our previous study. We used the same pooled plasma of female EHBRs orally treated with GA for 12 h as in our previous study.

[5] = Binding to serum albumin by ultrafiltration of pooled EHBR plasma; conditions: female, EHBR (Eisai hyperbilirubinuria rat), oral, 200 mg/kg
[6] = female, EHBR (Eisai hyperbilirubinuria rat), rat, plasma

SMILES	level in accumulated urine for 12 h [1] [nmol]	concentration at 12 h [1, 6] [µM]	detection in feces collected for 24 h [2]	cross-reactivity of anti-3MGA-mAb [3] [%]	Tmax ([1]; female, EHBR (Eisai hyperbilirubinuria rat), rat, plasma, po, 0.2 g/kg, GA 0.20 g/kg orally, read-out: time of maximum plasma concentration) [h]	uptake by kidney slices at 37 °C compared with 4 °C [4]	concentration at 12 h ([5]; plasma ultrafiltrate) [µM]	concentration at 12 h ([5]; plasma) [µM]	level in accumulated urine for 12 h relative to that of 3MGA [1] [fold]
CC1(C)[C@@H](O[C@@H]2O[C@H](C(=O)O)[C@@H](O)[C@H](O)[C@H]2O)CC[C@]2(C)[C@H]3C(=O)C=C4[C@@H]5C[C@@](C)(C(=O)O)CC[C@]5(C)CC[C@@]4(C)[C@]3(C)CC[C@@H]12 [3MGA, 3-monoglucuronyl glycyrrhetinic acid, reference compound]	0.31	0.09	not found	100	–	–	–	–	–
CC1(C)[C@@H](O)CC[C@]2(C)[C@H]3C(=O)C=C4[C@@H]5C[C@@](C)(C(=O)O)CC[C@]5(C)CC[C@@]4(C)[C@]3(C)CC[C@@H]12 [GA, glycyrrhetinic acid, reference compound]	0.05	~10	–	2.2	1	not different	< 0.016	7	–
CC1(C)[C@@H](OS(=O)(=O)O)CC[C@]2(C)[C@H]3C(=O)C=C4[C@@H]5C[C@@](C)(C(=O)O[C@@H]6O[C@H](C(=O)O)[C@@H](O)[C@H](O)[C@H]6O)C[C@H](O)[C@]5(C)CC[C@@]4(C)[C@]3(C)CC[C@@H]12 [compound 1, 22α-hydroxy-18β-glycyrrhetyl-3-O-sulfate-30-glucuronide]	–	~10	not found	4.8	–	–	–	–	8
CC1(C)[C@@H](OS(=O)(=O)O)CC[C@]2(C)[C@H]3C(=O)C=C4[C@@H]5C[C@@](C)(C(=O)O)C[C@H](O)[C@]5(C)CC[C@@]4(C)[C@]3(C)CC[C@@H]12 [compound 2, 22α-hydroxy-18β-glycyrrhetyl-3-O-sulfate]	–	~10	found	4.0	–	significantly higher	< 0.0032	7.8	110
CC1(C)[C@@H](OS(=O)(=O)O)CC[C@]2(C)[C@H]3C(=O)C=C4[C@@H]5C[C@@](C)(C(=O)O)CC[C@]5(C)CC[C@@]4(C)[C@]3(C)CC[C@@H]12 [compound 3, 18β-glycyrrhetyl-3-O-sulfate]	–	~10	found	23	–	significantly higher	< 0.0032	11.5	62
